These are literature values, as cited in PMC11322901 (Chemical Science, 2024).

pKi: −log10 of the molar value.

In one data set the target is GST. Particulars: read-out: Ki of monovalent EA inhibitor.
A further data set concerns the target CaM(Ca2+) (Mus musculus, UniProt P0DP26).

The term pKi denotes the Ki on a negative log10 scale, so that one unit is a factor of ten. In the case of `C=C(CC)C(=O)c1ccc(OCC(=O)O)c(Cl)c1Cl` [EA], the pKi on GST is 5.30 to 6.00.
Consider mastoparan, for which, on CaM(Ca2+), the “Affinity for CaM(Ca2+)” value is “low nanomolar”.
